Results published in BigSolDB 2.1.

COc1cc(Cl)nc(N)n1
solubility (mole fraction) (in 1,4-dioxane, 283.15 K): 0.0229
solubility (mole fraction) (in 1,4-dioxane, 288.15 K): 0.0264
solubility (mole fraction) (in 1,4-dioxane, 293.15 K): 0.0316
solubility (mole fraction) (in 1,4-dioxane, 298.15 K): 0.0367
solubility (mole fraction) (in 1,4-dioxane, 303.15 K): 0.0422
solubility (mole fraction) (in 1,4-dioxane, 308.15 K): 0.0493
solubility (mole fraction) (in 1,4-dioxane, 313.15 K): 0.0569
solubility (mole fraction) (in 1,4-dioxane, 318.15 K): 0.0648
solubility (mole fraction) (in 1,4-dioxane, 323.15 K): 0.0746
solubility (mole fraction) (in DMF, 273.15 K): 0.0496
solubility (mole fraction) (in DMF, 278.15 K): 0.0544
solubility (mole fraction) (in DMF, 283.15 K): 0.0595
solubility (mole fraction) (in DMF, 288.15 K): 0.0648
solubility (mole fraction) (in DMF, 293.15 K): 0.0712
solubility (mole fraction) (in DMF, 298.15 K): 0.0775
solubility (mole fraction) (in DMF, 303.15 K): 0.0846
solubility (mole fraction) (in DMF, 308.15 K): 0.0926
solubility (mole fraction) (in DMF, 313.15 K): 0.101
solubility (mole fraction) (in DMF, 318.15 K): 0.11
solubility (mole fraction) (in DMF, 323.15 K): 0.12
solubility (mole fraction) (in acetone, 273.15 K): 0.0076
solubility (mole fraction) (in acetone, 278.15 K): 0.00947
solubility (mole fraction) (in acetone, 283.15 K): 0.0117
solubility (mole fraction) (in acetone, 288.15 K): 0.0143
solubility (mole fraction) (in acetone, 293.15 K): 0.0174
solubility (mole fraction) (in acetone, 298.15 K): 0.0211
solubility (mole fraction) (in acetone, 303.15 K): 0.0255
solubility (mole fraction) (in acetone, 308.15 K): 0.0302
solubility (mole fraction) (in acetone, 313.15 K): 0.0358
solubility (mole fraction) (in acetone, 318.15 K): 0.0422
solubility (mole fraction) (in acetone, 323.15 K): 0.0492
solubility (mole fraction) (in acetonitrile, 273.15 K): 0.00136
solubility (mole fraction) (in acetonitrile, 278.15 K): 0.00174
solubility (mole fraction) (in acetonitrile, 283.15 K): 0.00223
solubility (mole fraction) (in acetonitrile, 288.15 K): 0.00276
solubility (mole fraction) (in acetonitrile, 293.15 K): 0.00345
solubility (mole fraction) (in acetonitrile, 298.15 K): 0.00426
solubility (mole fraction) (in acetonitrile, 303.15 K): 0.00523
solubility (mole fraction) (in acetonitrile, 308.15 K): 0.00633
solubility (mole fraction) (in acetonitrile, 313.15 K): 0.00773
solubility (mole fraction) (in acetonitrile, 318.15 K): 0.00927
solubility (mole fraction) (in acetonitrile, 323.15 K): 0.0111
solubility (mole fraction) (in chloroform, 273.15 K): 0.00237
solubility (mole fraction) (in chloroform, 278.15 K): 0.00306
solubility (mole fraction) (in chloroform, 283.15 K): 0.00389
solubility (mole fraction) (in chloroform, 288.15 K): 0.00492
solubility (mole fraction) (in chloroform, 293.15 K): 0.00612
solubility (mole fraction) (in chloroform, 298.15 K): 0.00758
solubility (mole fraction) (in chloroform, 303.15 K): 0.00924
solubility (mole fraction) (in chloroform, 308.15 K): 0.0114
solubility (mole fraction) (in chloroform, 313.15 K): 0.0138
solubility (mole fraction) (in chloroform, 318.15 K): 0.0166
solubility (mole fraction) (in chloroform, 323.15 K): 0.0197
solubility (mole fraction) (in ethanol, 273.15 K): 0.00128
solubility (mole fraction) (in ethanol, 278.15 K): 0.00163
solubility (mole fraction) (in ethanol, 283.15 K): 0.00206
solubility (mole fraction) (in ethanol, 288.15 K): 0.00259
solubility (mole fraction) (in ethanol, 293.15 K): 0.00323
solubility (mole fraction) (in ethanol, 298.15 K): 0.00396
solubility (mole fraction) (in ethanol, 303.15 K): 0.00488
solubility (mole fraction) (in ethanol, 308.15 K): 0.00598
solubility (mole fraction) (in ethanol, 313.15 K): 0.00733
solubility (mole fraction) (in ethanol, 318.15 K): 0.00886
solubility (mole fraction) (in ethanol, 323.15 K): 0.0106
solubility (mole fraction) (in ethyl acetate, 273.15 K): 0.00547
solubility (mole fraction) (in ethyl acetate, 278.15 K): 0.00687
solubility (mole fraction) (in ethyl acetate, 283.15 K): 0.00856
solubility (mole fraction) (in ethyl acetate, 288.15 K): 0.0105
solubility (mole fraction) (in ethyl acetate, 293.15 K): 0.0129
solubility (mole fraction) (in ethyl acetate, 298.15 K): 0.0155
solubility (mole fraction) (in ethyl acetate, 303.15 K): 0.0188
solubility (mole fraction) (in ethyl acetate, 308.15 K): 0.023
solubility (mole fraction) (in ethyl acetate, 313.15 K): 0.0276
solubility (mole fraction) (in ethyl acetate, 318.15 K): 0.033
solubility (mole fraction) (in ethyl acetate, 323.15 K): 0.0389
solubility (mole fraction) (in ethylbenzene, 273.15 K): 0.000515
solubility (mole fraction) (in ethylbenzene, 278.15 K): 0.000689
solubility (mole fraction) (in ethylbenzene, 283.15 K): 0.000887
solubility (mole fraction) (in ethylbenzene, 288.15 K): 0.00115
solubility (mole fraction) (in ethylbenzene, 293.15 K): 0.0015
solubility (mole fraction) (in ethylbenzene, 298.15 K): 0.00184
solubility (mole fraction) (in ethylbenzene, 303.15 K): 0.00238
solubility (mole fraction) (in ethylbenzene, 308.15 K): 0.00299
solubility (mole fraction) (in ethylbenzene, 313.15 K): 0.00367
solubility (mole fraction) (in ethylbenzene, 318.15 K): 0.00462
solubility (mole fraction) (in ethylbenzene, 323.15 K): 0.00567
solubility (mole fraction) (in isopropanol, 273.15 K): 0.00113
solubility (mole fraction) (in isopropanol, 278.15 K): 0.00149
solubility (mole fraction) (in isopropanol, 283.15 K): 0.0019
solubility (mole fraction) (in isopropanol, 288.15 K): 0.00241
solubility (mole fraction) (in isopropanol, 293.15 K): 0.00302
solubility (mole fraction) (in isopropanol, 298.15 K): 0.00377
solubility (mole fraction) (in isopropanol, 303.15 K): 0.0046
solubility (mole fraction) (in isopropanol, 308.15 K): 0.00574
solubility (mole fraction) (in isopropanol, 313.15 K): 0.00701
solubility (mole fraction) (in isopropanol, 318.15 K): 0.00857
solubility (mole fraction) (in isopropanol, 323.15 K): 0.0105
solubility (mole fraction) (in methanol, 273.15 K): 0.00126
solubility (mole fraction) (in methanol, 278.15 K): 0.00159
solubility (mole fraction) (in methanol, 283.15 K): 0.00199
solubility (mole fraction) (in methanol, 288.15 K): 0.00246
solubility (mole fraction) (in methanol, 293.15 K): 0.0031
solubility (mole fraction) (in methanol, 298.15 K): 0.00375
solubility (mole fraction) (in methanol, 303.15 K): 0.00463
solubility (mole fraction) (in methanol, 308.15 K): 0.00555
solubility (mole fraction) (in methanol, 313.15 K): 0.00675
solubility (mole fraction) (in methanol, 318.15 K): 0.00809
solubility (mole fraction) (in methanol, 323.15 K): 0.00962
solubility (mole fraction) (in n-propanol, 273.15 K): 0.00122
solubility (mole fraction) (in n-propanol, 278.15 K): 0.00158
solubility (mole fraction) (in n-propanol, 283.15 K): 0.00201
solubility (mole fraction) (in n-propanol, 288.15 K): 0.00256
solubility (mole fraction) (in n-propanol, 293.15 K): 0.00323
solubility (mole fraction) (in n-propanol, 298.15 K): 0.00407
solubility (mole fraction) (in n-propanol, 303.15 K): 0.00502
solubility (mole fraction) (in n-propanol, 308.15 K): 0.00618
solubility (mole fraction) (in n-propanol, 313.15 K): 0.0075
solubility (mole fraction) (in n-propanol, 318.15 K): 0.00916
solubility (mole fraction) (in n-propanol, 323.15 K): 0.0113
solubility (mole fraction) (in toluene, 273.15 K): 0.000694
solubility (mole fraction) (in toluene, 278.15 K): 0.000889
solubility (mole fraction) (in toluene, 283.15 K): 0.00115
solubility (mole fraction) (in toluene, 288.15 K): 0.00148
solubility (mole fraction) (in toluene, 293.15 K): 0.0019
solubility (mole fraction) (in toluene, 298.15 K): 0.00241
solubility (mole fraction) (in toluene, 303.15 K): 0.003
solubility (mole fraction) (in toluene, 308.15 K): 0.00374
solubility (mole fraction) (in toluene, 313.15 K): 0.00463
solubility (mole fraction) (in toluene, 318.15 K): 0.00573
solubility (mole fraction) (in toluene, 323.15 K): 0.00703
